Consider 13 compounds from patent publication US11952363B2, “Piperazine compounds for the treatment of autoimmune disease” (Hoffmann-La Roche Inc., priority 2018, dated 2024).

One series addresses T1, human TLR9 (Homo sapiens, UniProt Q9NR96).
T1 sequence (Q9NR96 26-1032): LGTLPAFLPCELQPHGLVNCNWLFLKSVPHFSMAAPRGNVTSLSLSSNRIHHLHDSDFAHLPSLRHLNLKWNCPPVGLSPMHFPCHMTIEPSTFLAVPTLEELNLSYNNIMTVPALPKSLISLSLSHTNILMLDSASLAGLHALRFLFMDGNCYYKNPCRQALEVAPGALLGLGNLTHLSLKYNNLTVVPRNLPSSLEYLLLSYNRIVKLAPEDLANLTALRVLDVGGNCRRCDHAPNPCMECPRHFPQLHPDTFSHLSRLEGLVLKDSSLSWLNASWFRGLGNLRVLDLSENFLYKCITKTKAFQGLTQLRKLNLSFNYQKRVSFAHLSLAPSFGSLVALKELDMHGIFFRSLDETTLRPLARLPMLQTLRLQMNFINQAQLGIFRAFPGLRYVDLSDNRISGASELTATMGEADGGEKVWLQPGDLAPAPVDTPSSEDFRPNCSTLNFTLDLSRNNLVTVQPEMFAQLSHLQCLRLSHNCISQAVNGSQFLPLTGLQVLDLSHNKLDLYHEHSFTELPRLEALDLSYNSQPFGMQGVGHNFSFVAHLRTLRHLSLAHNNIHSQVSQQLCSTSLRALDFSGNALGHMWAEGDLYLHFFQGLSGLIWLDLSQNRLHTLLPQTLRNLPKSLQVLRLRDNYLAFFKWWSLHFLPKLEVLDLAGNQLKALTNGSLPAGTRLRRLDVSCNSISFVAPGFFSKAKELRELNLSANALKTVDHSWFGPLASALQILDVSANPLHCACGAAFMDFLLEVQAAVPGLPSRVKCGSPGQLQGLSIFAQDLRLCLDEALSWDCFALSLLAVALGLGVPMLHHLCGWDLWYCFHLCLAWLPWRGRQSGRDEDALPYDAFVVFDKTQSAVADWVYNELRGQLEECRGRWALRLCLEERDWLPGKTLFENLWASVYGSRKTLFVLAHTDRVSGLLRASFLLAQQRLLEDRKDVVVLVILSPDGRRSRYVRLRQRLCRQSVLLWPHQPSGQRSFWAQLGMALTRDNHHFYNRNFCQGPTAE
The experiment in a line: HEK293-Blue-hTLR-9 cells assay (SEAP reporter, ODN2006 stimulation). Particulars: HEK293-Blue-hTLR9 cells, ODN2006 ligand, 20 hrs incubation; read-out: HEK/hTLR9 IC50. The format is cell-based. How it is done: The following tests were carried out in order to determine the activity of the compounds of formula (I) in HEK293-Blue-hTLR-7/8/9 cells assay.
A stable HEK293-Blue-hTLR-9 cell line was purchased from InvivoGen (Cat.#: hkb-htlr9, San Diego, California, USA). These cells were originally designed for studying the stimulation of human TLR9 by monitoring the activation of NF-κB. A SEAP (secreted embryonic alkaline phosphatase) reporter gene was placed under the control of the IFN-β minimal promoter fused to five NF-κB and. AP-1-binding sites. The SEAP was induced by activating NF-κB and AP-1 via stimulating HEK-Blue hTLR9 cells with TLR9 ligands. Therefore the reporter expression was declined by TLR9 antagonist under the stimulation of a ligand, such as ODN2006 (Cat.#: tlr1-2006-1, Invivogen, San Diego, California, USA), for incubation of 20 his. The cell culture supernatant SEAP reporter activity was determined using QUANTI-Blue™ kit (Cat.#: rep-qb1, Invivogen, San Diego, California, USA) at a wavelength of 640 nm, a detection medium that turns purple or blue in the presence of alkaline phosphatase.
HEK293-Blue-hTLR9 cells were incubated at a density of 250,000-450,000 cells/mL in a volume of 170 μL in a 96-well plate in Dulbecco's Modified Eagle's medium (DMEM) containing 4.5 g/L glucose, 50 U/mL penicillin, […], […], 2 mM L-glutamine, 10% (v/v) heat-inactivated fetal bovine serum with addition of 20 μL test compound in a serial dilution in the presence of final DMSO at 1% and 10 p L of 20uM ODN2006 in above DMEM, perform incubation under 37° C. in a CO2 incubator for 20 hrs. Then 20 μL of the supernatant from each well was incubated with 180 μL Quanti-blue substrate solution at 37° C. for 2 h and the absorbance was read at 620˜655 nm using a spectrophotometer. The signaling pathway that TLR9 activation leads to downstream NF-κB activation has been widely accepted, and therefore similar reporter assay was modified for evaluating TLR9 antagonist.

The nature of series [1]: Human microsomal stability assay. To be noted: human liver microsomes 0.5 mg/mL, 1 μM test compound, 37° C., pH 7.4. In kind it is in vitro ADME. How it is done: Human liver microsomes (Cat.NO.: 452117, Corning, USA) were preincubated with test compound for 10 minutes at 37° C. in 100 mM potassium phosphate buffer, pH 7.4. The reactions were initiated by adding NADPH regenerating system. The final incubation mixtures contained 1 μM test compound, 0.5 mg/mL liver microsomal protein, 1 mM MgCl2, 1 mM NADP, 1 unit/mL isocitric dehydrogenase and 6 mM isocitric acid in 100 mM potassium phosphate buffer, pH 7.4. After incubation times of 0, 3, 6, 9, 15 and 30 minutes at 37° C., 300 μL of cold ACN (including internal standard) was added to 100 μL incubation mixture to terminate the reaction. Following precipitation and centrifugation, 100 uL supernatant will be taken out and added 300 uL water. The amount of compound remaining in the samples was determined by LC-MS/MS. Controls of no NADPH regenerating system at zero and 30 minutes were also prepared and analyzed.
A general note: Microsomes from liver hold many membrane-bound enzymes, among them those of drug oxidation.

The target in a further series is T2, hERG (Homo sapiens, UniProt Q12809).
T2 construct: expressed in transfected cells
The series is described as follows: hERG channel inhibition assay (patch-clamp, CHO hERG cells). The format is cell-based. To be noted: for IC50 / IC20: CHO hERG cells, whole-cell patch-clamp; for IC20: human, CHO cells stably expressing hERG; for hERG IC20/TLR7 IC50 / hERG IC20/TLR8 IC50 / hERG IC20/TLR9 IC50: safety ratio, >30 suggests sufficient window. How it is done:
The hERG K^+ channels were cloned in humans and stably expressed in a CHO (Chinese hamster ovary) cell line. CHOhERG cells were used for patch-clamp (voltage-clamp, whole-cell) experiments. Cells were stimulated by a voltage pattern to activate hERG channels and conduct I KhERG currents (rapid delayed outward rectifier potassium current of the hERG channel). After the cells were stabilized for a few minutes, the amplitude and kinetics of I KhERG were recorded at a stimulation frequency of 0.1 Hz (6 bpm). Thereafter, the test compound was added to the preparation at increasing concentrations. For each concentration, an attempt was made to reach a steady-state effect, usually, this was achieved within 3-10 min at which time the next highest concentration was applied. The amplitude and kinetics of IKhERG are recorded in each concentration of the drug which were compared to the control values (taken as 100%). […]
A general note: Block of hERG is tested as a sign of cardiac risk.

Usually IC20 stands for the concentration needed for an effect of 20%. A low value points to an effect from little substance.

T2 sequence (Q12809 whole entry): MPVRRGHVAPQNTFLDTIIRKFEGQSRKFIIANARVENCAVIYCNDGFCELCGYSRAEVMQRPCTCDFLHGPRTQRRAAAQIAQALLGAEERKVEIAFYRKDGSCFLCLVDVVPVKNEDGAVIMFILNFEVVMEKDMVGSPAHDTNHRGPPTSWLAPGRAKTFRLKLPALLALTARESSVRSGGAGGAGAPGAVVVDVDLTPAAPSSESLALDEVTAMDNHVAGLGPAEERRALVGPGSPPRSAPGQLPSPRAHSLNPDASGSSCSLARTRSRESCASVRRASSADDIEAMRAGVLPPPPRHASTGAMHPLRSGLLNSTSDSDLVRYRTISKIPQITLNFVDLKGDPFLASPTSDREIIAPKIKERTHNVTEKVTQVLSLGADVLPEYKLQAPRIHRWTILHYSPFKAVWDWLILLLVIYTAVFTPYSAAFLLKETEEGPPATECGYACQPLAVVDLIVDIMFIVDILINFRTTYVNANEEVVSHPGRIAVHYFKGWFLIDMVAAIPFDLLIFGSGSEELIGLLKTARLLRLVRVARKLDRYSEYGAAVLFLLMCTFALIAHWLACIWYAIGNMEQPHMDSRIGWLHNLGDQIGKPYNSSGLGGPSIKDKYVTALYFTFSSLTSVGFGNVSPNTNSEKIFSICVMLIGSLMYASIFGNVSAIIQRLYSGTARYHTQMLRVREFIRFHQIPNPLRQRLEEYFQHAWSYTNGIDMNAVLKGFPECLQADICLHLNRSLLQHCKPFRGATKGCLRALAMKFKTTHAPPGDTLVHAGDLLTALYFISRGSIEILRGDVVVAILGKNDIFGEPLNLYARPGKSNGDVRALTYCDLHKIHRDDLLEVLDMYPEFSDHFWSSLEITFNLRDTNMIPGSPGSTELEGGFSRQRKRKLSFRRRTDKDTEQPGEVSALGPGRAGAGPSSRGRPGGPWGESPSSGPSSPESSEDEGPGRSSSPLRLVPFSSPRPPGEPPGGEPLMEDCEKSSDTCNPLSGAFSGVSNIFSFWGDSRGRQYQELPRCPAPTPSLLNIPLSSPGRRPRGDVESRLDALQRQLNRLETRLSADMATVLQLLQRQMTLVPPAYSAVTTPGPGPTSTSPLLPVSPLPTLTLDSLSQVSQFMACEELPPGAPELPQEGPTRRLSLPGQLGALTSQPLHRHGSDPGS

Take `C[C@@H]1CN(c2ccc(C#N)c3ncccc23)C[C@H](C)N1Cc1ccc(N2CCNCC2)cc1` [Example 1, 5-[(3R,5S)-3,5-Dimethyl-4-[(4-piperazin-1-ylphenyl)methyl]piperazin-1-yl]quinoline-8-carbonitrile]: the IC50 at human TLR9 is 39 nM. The “Clearance of Human microsome” value in series [1] is reported as 11.2 mL/min/kg.

With `C[C@@H]1CN(c2ccc(C#N)c3ncccc23)C[C@@H](C)N1Cc1ccc(N2CCNCC2)cc1` [Example 2], the IC50 at human TLR9 amounted to 65 nM. For the same compound, the “Clearance of Human microsome” value in series [1] was 8.0 mL/min/kg.

As for `C[C@@H]1CN(c2ccc(C#N)c3ncccc23)C[C@H](C)N1Cc1ccc(N2CCNCC2)cn1` [Example 5, 5-[(3S,5R)-3,5-Dimethyl-4-[(5-piperazin-1-yl-2-pyridyl)methyl]piperazin-1-yl]quinoline-8-carbonitrile], the IC50 at human TLR9 came out at 84 nM. For the same compound, on hERG, the IC50 was over 20000 nM, the IC20 was over 10000 nM, the “hERG IC20/TLR7 IC50” value is given as over 833 and the “hERG IC20/TLR8 IC50” value was over 666. In addition, at hERG, the “hERG IC20/TLR9 IC50” value is reported as over 119.

For `C[C@@H]1CN(c2ccc(C#N)c3ncccc23)C[C@H](C)N1Cc1ncc(N2CCN(C(=O)CN(C)C)CC2)cn1` [Example 6, 5-[(3S,5R)-4-[[5-[4-[2-(Dimethylamino)acetyl]piperazin-1-yl]pyrimidin-2-yl]methyl]-3,5-dimethyl-piperazin-1-yl]quinoline-8-carbonitrile], the IC50 on human TLR9 was 139 nM. Moreover, the “Clearance of Human microsome” value in series [1] was 10.5 mL/min/kg.

In the case of `C[C@@H]1CN(c2ccc(C#N)c3ncccc23)C[C@H](C)N1Cc1ccc(N2CCN(C)CC2)cn1` [Example 7, 5-[(3S,5R)-3,5-dimethyl-4-[[5-(4-methylpiperazin-1-yl)-2-pyridyl]methyl]piperazin-1-yl]quinoline-8-carbonitrile], at human TLR9, the IC50 worked out at 120 nM.

As for `C[C@@H]1CN(c2ccc(C#N)c3ncccc23)C[C@H](C)N1Cc1ccc(N2CC3CNCC(C2)O3)cn1` [Example 8, 5-[(3S,5R)-3,5-Dimethyl-4-[[5-(9-oxa-3,7-diazabicyclo[3.3.1]nonan-3-yl)-2-pyridyl]methyl]piperazin-1-yl]quinoline-8-carbonitrile], at human TLR9, the IC50 was 73 nM. Moreover, the “Clearance of Human microsome” value in series [1] is 12.4 mL/min/kg.

Turning to `C[C@@H]1CN(c2ccc(C#N)c3ncccc23)C[C@H](C)N1Cc1ccc(N[C@@H]2CNC[C@@H]2F)cn1` [Example 9, 5-[(3R,5S)-3,5-Dimethyl-4-[[5-[[(3R,4S)-4-fluoropyrrolidin-3-yl]amino]-2-pyridyl]methyl]piperazin-1-yl]quinoline-8-carbonitrile], the IC50 at human TLR9 was 47 nM. Moreover, in series [1], the “Clearance of Human microsome” value came to 12.8 mL/min/kg.

With `C[C@@H]1CN(c2ccc(C#N)c3ncccc23)C[C@H](C)N1Cc1ccc(N2CCN(C(=O)C3CCCN3)CC2)cn1` (stereo partly drawn) [Example 10, 5-[(3R,5S)-3,5-Dimethyl-4-[[5-[4-(pyrrolidine-2-carbonyl)piperazin-1-yl]-2-pyridyl]methyl]piperazin-1-yl]quinoline-8-carbonitrile], at human TLR9, the IC50 stood at 41 nM. Also, at hERG, the IC50 is over 20000 nM, the IC20 was over 10000 nM, the “hERG IC20/TLR7 IC50” value was over 145 and the “hERG IC20/TLR8 IC50” value is over 197. In addition, the “hERG IC20/TLR9 IC50” value on hERG is recorded as over 242.

As for `C[C@@H]1CN(c2ccc(C#N)c3ncccc23)C[C@H](C)N1Cc1ccc(N2CCN(C(=O)CN(C)C)CC2)cn1` [Example 11, 5-[(3S,5R)-4-[[5-[4-[2-(Dimethylamino)acetyl]piperazin-1-yl]-2-pyridyl]methyl]-3,5-dimethyl-piperazin-1-yl]quinoline-8-carbonitrile], on human TLR9, the IC50 is 96 nM. Also, on hERG, the IC50 is over 20000 nM, the 20% effect concentration (IC20) is over 10000 nM, the “hERG IC20/TLR7 IC50” value was over 198 and the “hERG IC20/TLR8 IC50” value was over 289. Besides, the “hERG IC20/TLR9 IC50” value at hERG is over 104.

For `C[C@@H]1CN(c2ccc(C#N)c3ncccc23)C[C@H](C)N1Cc1ccc(N2CCNCC2CO)cc1` (stereo partly drawn) [Example 12, 5-[(3R,5S)-4-[[4-[2-(Hydroxymethyl)piperazin-1-yl]phenyl]methyl]-3,5-dimethyl-piperazin-1-yl]quinoline-8-carbonitrile], at human TLR9, the IC50 came to 60 nM. Further, in series [1], the “Clearance of Human microsome” value was 10.1 mL/min/kg.

In the case of `C[C@@H]1CN(c2ccc(C#N)c3ncccc23)C[C@H](C)N1CC(=O)N1CCc2nc(N3CCNCC3)ccc2C1` [Example 13, 5-[(3R,5S)-3,5-Dimethyl-4-[2-oxo-2-(2-piperazin-1-yl-7,8-dihydro-5H-1,6-naphthyridin-6-yl)ethyl]piperazin-1-yl]quinoline-8-carbonitrile], the IC50 on human TLR9 worked out at 132 nM.

Turning to `C[C@@H]1CN(c2ccc(C#N)c3ncccc23)C[C@H](C)N1CC(=O)N1CCc2cc(N3CCNCC3)ccc2C1` [Example 14, 5-[(3R,5S)-3,5-Dimethyl-4-[2-oxo-2-(6-piperazin-1-yl-3,4-dihyrdo-1H-isoquinolin-2-yl)ethyl]piperazin-1-yl]quinoline-8-carbonitrile], the IC50 at human TLR9 amounted to 116 nM. Also, in series [1], the “Clearance of Human microsome” value is 12.9 mL/min/kg.

Turning to `C[C@@H]1CN(c2ccc(C#N)c3ncccc23)C[C@H](C)N1CC(=O)N1CCc2ccc(N3CCNCC3)cc2C1` [Example 15, 5-[(3R,5S)-3,5-dimethyl-4-[2-pxp-2-(7-piperazin-1-yl-3,4-dihydro-1H-isoquinolin-2-yl)ethyl]piperazin-1-yl]quinoline-8-carbonitrile], the IC50 on human TLR9 was determined as 94 nM.
